In brackets after ≈: the same amount, converted by molar mass.
Columns and labels:
HIV = experiment: Testing of preparations against HIV in cell culture (giant cell formation in HIV-infected lymphocytes); format: cell-based; conditions: 3 days, 37° C.; for MIC: Human immunodeficiency virus 1, 72 h, lowest concentration at which no giant cells occurred; for EC50: Human immunodeficiency virus 1, Lymphocyte, 72 h
Description: Testing of Preparations Against HIV Cell Culture
Complete medium additionally contains 20% fetal calf serum and 40 IU/ml of recombinant interleukin 2.
Lymphocytes isolated from fresh donor blood by means of Ficoll^R gradient centrifugation are cultured at 37° C. under 5% CO2 for 36 h in complete medium with addition of […] of phytohemagglutinin (Wellcome). After addition of 10% DMSO, the cells are frozen at a cell density of 5×10^6 and stored in liquid nitrogen. For the experiment, the cells are thawed, washed in RPMI medium and cultured in complete medium for 3-4 days.
The test preparations were dissolved in DMSO in a concentration of 16.7 mg/ml and diluted to 1 mg/ml in complete medium. 0.4 ml of medium was initially introduced into 24-well multiwell dishes. After addition of 0.1 ml of the dissolved preparation in the top row of the dish, a geometrical dilution series was produced by transfer of 0.1 ml in each case. Preparation-free controls always contained 0.4 ml of complete medium containing 0.5% DMSO. Lymphocyte cultures having a cell count of 5×10^5 cells/ml were infected by addition of 1/50 volumes of supernatant from HIV-infected lymphocyte cultures. The titer of these culture supernatants was determined by endpoint dilution with 1-5×10^6 infectious units/ml. After incubation at 37° C. for 30 min, the infected lymphocytes were removed by centrifugation and taken up again in the same volume of medium. 0.6 ml of this cell suspension in each case was added to all hollows of the test plate. The batches were incubated at 37° C. for 3 days.
The infected cell cultures were investigated under the microscope for the presence of giant cells, which indicate active virus replication in the culture. The lowest preparation concentration at which no giant cells occurred was determined as the inhibitory concentration against HIV. For the control, the supematants from the culture plates were determined for the presence of HIV antigen using an HIV antigen test according to the instructions of the manufacturer (Organon).

[1] = biological target: T1, HIV "Reverse Transcriptase" (Human immunodeficiency virus type 1 group M subtype B, UniProt P04585); experiment: Inhibition of HIV reverse transcriptase, Scintillation Proximity Assay (SPA); format: biochemical; conditions: RT-SPA, 60 min, 37° C.; read-out: Reverse Transcriptase Assay IC-50 (converted)
T1 construct: purchased HT Biotechnology LTD, Cambridge, UK; host or cells: E. coli
Description: Investigation of the Substances for Inhibition of HIV "Reverse Transcriptase"
The activity of the reverse transcriptase (RT) was determined using a "Scintillation Proximity Assay" (SPA).
The reagent kit for the RT-SPA was obtained from Amersham/Buchler (Brunswick). The enzyme RT (from HIV cloned in E. coli) came from HT Biotechnology LTD, Cambridge, UK.
The test was carried out according to the method manual of the manufacturer Amersham--with the following modifications:
Bovine serum albumin was added to the assay buffer to a final concentration of 0.5 mg/ml.
The test was carried out in Eppendorf reaction vessels with a […] batch volume.
The RT concentrate of the manufacturer (5000 U/ml) was diluted to an activity of 15 U/ml in tris HCl buffer 20 mM; pH 7.2; 30% glycerol.
The incubation time for the batches was 60 min (37° C.).
After stopping the reaction and "development" with the bead suspension, 130 μl batches were transferred to 4.5 ml of tris HCl buffer, 10 mM; pH 7.4; 0.15 M NaCl and the tritium activity was measured in a β-counter.
For a preliminary test of the inhibitor activity, the substances were dissolved in DMSO (stock solution c=1 mg/ml) and tested in dilution in DMSO 10^-1, 10^-2, 10^-3 etc.
For the determination of IC50 values, the inhibitor stock solutions were further diluted in tris HCl buffer, 50 mM, pH 8 and tested in suitable concentrations.
From the graphic representation of RT activity versus Log Clnh., the concentration associated with a 50% enzyme inhibition was determined.

[2] = Hirsch, M. S. J. Infect. Dis. 157 (1988), 427-431; cited from earlier work

Structure (SMILES)	MIC (HIV) [µg/mL]	EC50 (HIV) [µg/mL]	IC50 [1] [nM]	therapeutic breadth / toxicity [2]
CCc1c(C(=O)OC(C)C)c2ccccc2[nH]c1=S [Compound 5]	0.2 (≈ 0.726 µM)	0.005 (≈ 0.0182 µM)	35	
CC(C)OC(=O)c1c(-c2ccccc2)c(=S)[nH]c2ccc(Cl)cc12 [Compound 6]			22	
CC(C)OC(=O)c1c(-c2ccccc2)c(=S)[nH]c2ccc(F)cc12 [Compound 15]	> 0.04	~0.02 (≈ 0.0586 µM)	21	
CC(C)Cc1c(C(=O)OC(C)C)c2ccccc2[nH]c1=O [Compound 16]	> 0.04	0.05 (≈ 0.174 µM)	372	
CCC(CC)OC(=O)c1c(-c2ccccc2)c(=S)[nH]c2ccc(Cl)cc12 [Compound 18]	> 0.2	~0.08 (≈ 0.207 µM)	29	
CCc1c(C(=O)OC(C)C)c2cc(Cl)ccc2[nH]c1=O [Compound 19, isopropyl 6-chloro-3-ethylquinolin-2(1H)-one-4-carboxylate]	~0.2 (≈ 0.681 µM)	~0.02 (≈ 0.0681 µM)	94	
CCc1c(C(=O)OC(C)C)c2cc(Cl)ccc2[nH]c1=S [Compound 20, isopropyl 6-chloro-3-ethylquinoline-2(1H)-thione-4-carboxylate]	> 0.008	~0.002 (≈ 0.00646 µM)	8	
CCc1c(C(=O)OC2CCCC2)c2ccccc2[nH]c1=S [Compound 30]	~0.2 (≈ 0.664 µM)	~0.04 (≈ 0.133 µM)	147	
CC(C)OC(=O)c1c(C(C)C)c(=O)[nH]c2ccccc12 [Compound 34]	> 0.2	~0.1 (≈ 0.366 µM)	1520	
CC(C)OC(=O)c1c(C(C)C)c(=S)[nH]c2ccccc12 [Compound 35]	> 0.04	> 0.008	529	
COC(=O)c1c(C)c(=S)[nH]c2ccc(Cl)cc12 [Compound 39]	> 0.2	0.03 (≈ 0.112 µM)		
Cc1c(C(=O)OC(C)C)c2cc(Cl)ccc2[nH]c1=O [Compound 40]	> 0.04	0.015 (≈ 0.0536 µM)	608	
Cc1c(C(=O)OC(C)C)c2cc(Cl)ccc2[nH]c1=S [Compound 41]	> 0.04	< 0.001		
Cc1c(C(=O)OCC2CC2)c2cc(Cl)ccc2[nH]c1=O [Compound 42]	> 0.2	~0.1 (≈ 0.343 µM)		
Cc1c(C(=O)OCC2CC2)c2cc(Cl)ccc2[nH]c1=S [Compound 43]			26	
CCCOC(=O)c1c(C)c(=S)[nH]c2ccc(Cl)cc12 [Compound 45]	< 0.2	~0.04 (≈ 0.135 µM)	34	
CC(C)OC(=O)c1c(-c2ccccc2Cl)c(=S)[nH]c2ccccc12 [Compound 61]	~0.08 (≈ 0.224 µM)		26	
CCOC(=O)c1c(CC)c(=S)[nH]c2ccc(Cl)cc12 [Compound 67]			1	
CCc1c(C(=O)OC2CCCCC2)c2cc(Cl)ccc2[nH]c1=S [Compound 70]	~0.4 (≈ 1.14 µM)	< 0.08	8	
C=CCOC(=O)c1c(CC)c(=S)[nH]c2ccc(Cl)cc12 [Compound 71]	~0.4 (≈ 1.3 µM)	< 0.08	1	
Nc1ccn([C@H]2CC[C@@H](CO)O2)c(=O)n1 [DDC]				very narrow therapeutic breadth or by very severe toxicity which occurs even in the therapeutic range
O=c1[nH]cnc2c1ncn2[C@H]1CC[C@@H](CO)O1 [DDI]				very narrow therapeutic breadth or by very severe toxicity which occurs even in the therapeutic range

Source: patent US6114349A, “Substituted quinoline derivatives with antiviral action” (Hoechst Aktiengesellschaft, priority 1996, dated 2000)
